The record followed here is PMC9738591, “N-[1,3-Dialkyl(aryl)-2-oxoimidazolidin-4-ylidene]-aryl(alkyl)sulphonamides as Novel Selective Human Cannabinoid Type 2 Receptor (hCB2R) Ligands; Insights into the Mechanism of Receptor Activation/Deactivation” (Molecules, 2022).

As a reminder, the Ki is a measure of affinity in units of concentration, obtained from inhibition or displacement. One may read the melting point as the temperature, or range, at which the solid turns liquid.

One series addresses human CB2R (Homo sapiens, UniProt P34972). Kind of series: Competition binding assay, displacement of [3H]-CP-55,940 from membranes of HEK-293 cells overexpressing CB2R. Also noted: purchased Perkin-Elmer, Italy; host or cells: HEK-293 cells (membranes). The following applies: for Ki: [3H]-CP-55,940 displacement, HEK-293 membranes, 90 min at 30 °C, Cheng-Prusoff, read-out: Ki hCB2R (µM ± S.E.). Here is the method:
(§1) The binding affinities (Ki values) of the compounds for human recombinant hCB1R and hCB2R were determined as previously described, using SR144528 as a reference compound [30], and are reported in Table 1.
(§2) Compound affinity for CB1R and CB2R was measured as previously reported. […] Competition curves were performed by displacing [^3H]-CP-55 940 with increasing concentrations of compounds (0.1 nM–10 or 25 μM). […] All compounds were tested following the procedure described by the manufacturer (Perkin-Elmer, Italy). Displacement curves were generated by incubating drugs with [^3H]-CP-55 940 for 90 min at 30 °C. Ki values were calculated by applying the Cheng−Prusoff equation to the IC50 values for the displacement of the bound radioligand by increasing concentrations of the test compound. Data represent the mean values of three independent experiments performed in duplicate and are expressed as the average of Ki (µM) ± standard deviation. Data were analyzed using PRISM.9.3 software (GraphPad Software Inc, San Diego, CA, USA).
For orientation: Displacement assays read how much labelled ligand stays bound in the presence of the test substance.

For another series, the target named is T1, human recombinant CB1R (Homo sapiens, UniProt P21554).
T1 construct: purchased Perkin-Elmer, Italy; host or cells: HEK-293 cells (membranes)
Kind of series: Competition binding assay, displacement of [3H]-CP-55,940 from membranes of HEK-293 cells overexpressing CB1R. The following applies: for inhibition at 10 µM: read-out: % Displacement/ Max. Conc. Tested, hCB1R; for Ki: [3H]-CP-55,940 displacement, HEK-293 membranes, 90 min at 30 °C, Cheng-Prusoff, read-out: Ki hCB1R (µM ± S.E.). On the procedure:
as §1, §2

Setting [1] is: max conc. tested 10 µM, read-out: % Displacement/ Max Conc. Tested, hCB2R (converted).

Where two headings read alike, the source gives them in different places. Some results are limits rather than exact numbers.

Chain of human CB2R (P34972 whole entry): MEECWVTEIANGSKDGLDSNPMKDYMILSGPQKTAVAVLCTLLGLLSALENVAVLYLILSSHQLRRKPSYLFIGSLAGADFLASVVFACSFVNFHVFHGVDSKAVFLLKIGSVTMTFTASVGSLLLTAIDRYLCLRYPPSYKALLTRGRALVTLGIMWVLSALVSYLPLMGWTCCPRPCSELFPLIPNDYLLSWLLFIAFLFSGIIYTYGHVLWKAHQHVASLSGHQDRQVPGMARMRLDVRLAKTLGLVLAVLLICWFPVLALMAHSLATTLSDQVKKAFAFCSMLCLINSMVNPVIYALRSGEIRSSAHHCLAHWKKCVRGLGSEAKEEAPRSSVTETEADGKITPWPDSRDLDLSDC
T1 sequence (P21554 whole entry): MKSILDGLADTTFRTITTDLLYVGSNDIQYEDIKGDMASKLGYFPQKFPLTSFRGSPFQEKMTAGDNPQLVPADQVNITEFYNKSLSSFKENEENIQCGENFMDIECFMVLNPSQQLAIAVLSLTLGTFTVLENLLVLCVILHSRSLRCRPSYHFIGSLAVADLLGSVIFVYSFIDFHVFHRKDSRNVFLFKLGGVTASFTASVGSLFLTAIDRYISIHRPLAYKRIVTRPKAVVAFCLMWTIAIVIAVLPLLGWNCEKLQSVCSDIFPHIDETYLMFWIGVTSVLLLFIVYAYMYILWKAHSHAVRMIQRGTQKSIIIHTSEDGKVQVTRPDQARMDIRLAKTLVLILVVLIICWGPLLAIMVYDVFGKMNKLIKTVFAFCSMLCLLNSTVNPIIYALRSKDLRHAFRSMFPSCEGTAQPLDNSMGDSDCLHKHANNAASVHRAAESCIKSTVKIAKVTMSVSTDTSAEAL

In the case of `CC(C)(C)N1CC(=NS(=O)(=O)c2ccc(Br)cc2)N(c2ccccc2)C1=O` [Compound 9d, 4-Bromo-N-[1-tert-butyl-2-oxo-3-phenylimidazolidin-4-ylidene]benzenesulfonamide], the Ki at human CB2R was > 10 µM. Besides, the inhibition at 10 µM is 53.5% on human CB2R (read-out: % Displacement/ Max Conc. Tested, hCB2R) and 17.4% at human recombinant CB1R (max conc. tested 10 µM).

For the compound `CC(C)(C)N1C(=O)N(CC2CC2)CC1=NS(=O)(=O)c1ccccc1` [Compound 15, N-[3-tert-Butyl-1-(cyclopropylmethyl)-2-oxoimidazolidin-4-ylidene]benzenesulfonamide], the Ki on human CB2R was 1.61 ± 0.16 µM; on human recombinant CB1R, > 10 µM. The results for the inhibition at 10 µM at human CB2R (setting [1]) and at human recombinant CB1R were 73.9% and 0.01%, respectively.

The compound `O=C1N(CC2CC2)C(=NS(=O)(=O)c2ccc(Br)cc2)CN1C12CC3CC(CC(C3)C1)C2` [Compound 12d, N-[1-Adamant-1-yl-3-cyclopropylmethyl-2-oxoimidazolidin-4-ylidene]-4-bromo-1-benzenesulfonamide] gave a melting point of 176 to 176.5 °C. Moreover, the Ki at human CB2R is > 10 µM. Moreover, at human CB2R (setting [1]), the inhibition at 10 µM is 32.5%. Besides, at human recombinant CB1R, the inhibition constant Ki is > 10 µM and the inhibition at 10 µM was found to be 47.9%.

In the case of `Cc1ccc(S(=O)(=O)N=C2CN(C(C)(C)C)C(=O)N2CC2CC2)cc1` [Compound 10c, N-[1-tert-Butyl-3-cyclopropylmethyl-2-oxoimidazolidin-4-ylidene]-4-methylbenzenesulfonamide], the melting point was in the range of 104.5 to 105 °C. For the same compound, the Ki at human CB2R turned out to be 1.47 ± 0.05 µM. Further, the inhibition at 25 µM at human CB2R (max conc. tested 25 µM, read-out: % Displacement/ Max Conc. Tested, hCB2R (converted)) is 89.5%. Moreover, on human recombinant CB1R, the Ki is > 10 µM and the inhibition at 10 µM amounted to 0%.

For the compound `CN1CC(=NS(=O)(=O)c2ccccc2)N(C)C1=O` [Compound 4a, N-[1,3-Dimethyl-2-oxoimidazolidin-4-ylidene]benzenesulfonamide], the inhibition constant (Ki) on human CB2R and on human recombinant CB1R was > 10 µM in each case. The values for the inhibition at 10 µM at human CB2R (setting [1]) and at human recombinant CB1R (max conc. tested 10 µM) were 6.19% and 32.8%, respectively.

`Cc1cc(C)c(S(=O)(=O)N=C2CN(C34CC5CC(CC(C5)C3)C4)C(=O)N2CC2CC2)c(C)c1` [Compound 12f, N-[1-Adamant-1-yl-3-cyclopropylmethyl-2-oxoimidazolidin-4-ylidene]-2,4,6-trimethyl-1-benzenesulfonamide]: the melting point was 166.5 to 167.5 °C. Further, the Ki on human CB2R was > 10 µM. Also, the inhibition at 10 µM at human CB2R (setting [1]) was 40.2%. At human recombinant CB1R, the Ki was > 10 µM and the inhibition at 10 µM stood at 59.2%.

Consider `CC(C)(C)N1CC(=NS(=O)(=O)c2ccccc2)N(c2ccccc2)C1=O` [Compound 9b, N-[1-tert-Butyl-2-oxo-3-phenylimidazolidin-4-ylidene]benzenesulfonamide], for which the Ki on human CB2R and at human recombinant CB1R was > 10 µM each time. Also, the inhibition at 10 µM was 22.6% on human CB2R (setting [1]) and 12% on human recombinant CB1R.

As to `CC(C)(C)N1CC(=NS(C)(=O)=O)N(c2ccccc2)C1=O` [Compound 9a, N-[1-tert-Butyl-2-oxo-3-phenylimidazolidin-4-ylidene]-methanesulfonamide], the Ki on human CB2R and on human recombinant CB1R was > 10 µM each time. In addition, the inhibition at 10 µM is 8.84% at human CB2R (setting [1]) and 9.48% at human recombinant CB1R.

As for `CC(C)N1CC(=NS(=O)(=O)c2cccc3ccccc23)N(CC2CC2)C1=O` [Compound 13, N-[3-(cyclopropylmethyl)-2-oxo-1-(propan-2-yl)imidazolidin-4-ylidene]naphthalene-1-sulfonamide], the Ki at human CB2R was 0.8 ± 0.02 µM; at human recombinant CB1R, > 10 µM. Moreover, the figures for the inhibition at 10 µM on human CB2R (setting [1]) and on human recombinant CB1R were 78.3% and 4.63%, respectively.

For `CCN1CC(=NS(=O)(=O)c2ccc(Br)cc2)N(CC)C1=O` [Compound 4g, 4-Bromo-N-[1,3-diethyl-2-oxoimidazolidin-4-ylidene]benzenesulfonamide], the inhibition constant (Ki) on human CB2R and on human recombinant CB1R was > 10 µM throughout. Moreover, the inhibition at 10 µM at human CB2R (setting [1]) was 13.4%; at human recombinant CB1R (max conc. tested 10 µM), 20.6%.

For `CCN1CC(=NS(=O)(=O)c2ccc(Cl)cc2)N(CC)C1=O` [Compound 4f, 4-Chloro-N-[1,3-diethyl-2-oxoimidazolidin-4-ylidene]benzenesulfonamide], the Ki on human CB2R and on human recombinant CB1R was > 10 µM each time. The inhibition at 10 µM was 14.9% on human CB2R (setting [1]) and 17.8% on human recombinant CB1R (max conc. tested 10 µM).

Consider `Cc1ccc(S(=O)(=O)N=C2CN(C)C(=O)N2C)cc1` [Compound 4b, N-[1,3-Dimethyl-2-oxoimidazolidin-4-ylidene]-4-methylbenzenesulfonamide], for which the Ki on human CB2R and on human recombinant CB1R was > 10 µM each time. Besides, the inhibition at 10 µM on human CB2R (setting [1]) was 7.08%; on human recombinant CB1R (max conc. tested 10 µM) it was 26.9%.

In the case of `CC(C)(C)N1CC(=NS(=O)(=O)c2ccc3ccccc3c2)N(CC2CC2)C1=O` [Compound 10h, N-[1-tert-Butyl-3-cyclopropylmethyl-2-oxoimidazolidin-4-ylidene]naphthalene-2-sulfonamide], the Ki was 0.78 ± 0.17 µM on human CB2R and > 10 µM at human recombinant CB1R. The figures for the inhibition at 10 µM at human CB2R (setting [1]) and at human recombinant CB1R were 72.3% and 8.18%, respectively.

In the case of `Cc1ccc(S(=O)(=O)N=C2CN(C(C)(C)C)C(=O)N2CC(C)C)cc1` [Compound 14, N-[1-tert-Butyl-3-(2-methylpropyl)-2-oxoimidazolidin-4-ylidene]-4-methylbenzene-1-sulfonamide], the Ki at human CB2R and on human recombinant CB1R was > 10 µM throughout. The inhibition at 10 µM was 47.8% at human CB2R (setting [1]) and 0.02% at human recombinant CB1R.

Take `CN1CC(=NS(=O)(=O)c2ccc(Br)cc2)N(C)C1=O` [Compound 4d, 4-Bromo-N-[1,3-dimethyl-2-oxoimidazolidin-4-ylidene]benzenesulfonamide]: the Ki on human CB2R and at human recombinant CB1R was > 10 µM throughout. The inhibition at 10 µM at human CB2R (setting [1]) was 10.7%; on human recombinant CB1R (max conc. tested 10 µM), 14.9%.

Regarding `CN1CC(=NS(=O)(=O)c2ccc(Cl)cc2)N(C)C1=O` [Compound 4c, 4-Chloro-N-[1,3-dimethyl-2-oxoimidazolidin-4-ylidene]benzenesulfonamide], the Ki at human CB2R and on human recombinant CB1R was > 10 µM throughout. For the same compound, the inhibition at 10 µM on human CB2R (setting [1]) is 12.3%; at human recombinant CB1R (max conc. tested 10 µM) it was 47.5%.

Regarding `CC(C)(C)N1CC(=NS(=O)(=O)c2cccc(Br)c2)N(c2ccccc2)C1=O` [Compound 9e, 3-Bromo-N-[1-tert-butyl-2-oxo-3-phenylimidazolidin-4-ylidene]benzenesulfonamide], the Ki at human CB2R and at human recombinant CB1R was > 10 µM each time. Besides, the results for the inhibition at 10 µM at human CB2R (setting [1]) and at human recombinant CB1R (max conc. tested 10 µM) were 24.1% and 4.64%, respectively.

Take `CC(C)(C)N1CC(=NS(=O)(=O)c2cccc3ccccc23)N(c2ccccc2)C1=O` [Compound 9g, N-[1-tert-Butyl-2-oxo-3-phenylimidazolidin-4-ylidene]naphthalene-1-sulfonamide]: the Ki at human CB2R and on human recombinant CB1R was > 10 µM each time. Further, the inhibition at 10 µM is 11% on human CB2R (setting [1]) and 14.8% at human recombinant CB1R.

On to `CCN1CC(=NS(=O)(=O)c2ccc(C)cc2)N(CC)C1=O` [Compound 1, N-[1,3-Diethyl-2-oxoimidazolidin-4-ylidene]-4-methylbenzenesulfonamide], for which the Ki at human CB2R and at human recombinant CB1R was > 10 µM throughout. Also, the inhibition at 10 µM at human CB2R (setting [1]) is 7.7%; on human recombinant CB1R (max conc. tested 10 µM), 8.78%.

Regarding `Cc1ccc(S(=O)(=O)N=C2CN(C(C)(C)C)C(=O)N2c2ccccc2)cc1` [Compound 9c, N-[1-tert-Butyl-2-oxo-3-phenylimidazolidin-4-ylidene]-4-methylbenzenesulfonamide], the inhibition constant (Ki) on human CB2R and on human recombinant CB1R was > 10 µM in each case. Further, the results for the inhibition at 10 µM at human CB2R (setting [1]) and at human recombinant CB1R were 5.39% and 7.22%, respectively.

Take `CCN1CC(=NS(=O)(=O)c2ccccc2)N(CC)C1=O` [Compound 4e, N-[1,3-Diethyl-2-oxoimidazolidin-4-ylidene]benzenesulfonamide]: the Ki on human CB2R and at human recombinant CB1R was > 10 µM in each case. In addition, the inhibition at 10 µM was 7.72% at human CB2R (setting [1]) and 22.7% on human recombinant CB1R (max conc. tested 10 µM).

On to `CC(C)(C)N1CC(=NS(=O)(=O)c2ccc3ccccc3c2)N(c2ccccc2)C1=O` [Compound 9h, N-[1-tert-Butyl-2-oxo-3-phenylimidazolidin-4-ylidene]naphthalene-2-sulfonamide], for which the Ki at human CB2R and at human recombinant CB1R was > 10 µM in each case. The inhibition at 10 µM at human CB2R (setting [1]) was 35.6%; at human recombinant CB1R, 8.35%.

Turning to `Cc1cc(C)c(S(=O)(=O)N=C2CN(C(C)(C)C)C(=O)N2c2ccccc2)c(C)c1` [Compound 9f, N-[1-tert-Butyl-2-oxo-3-phenylimidazolidin-4-ylidene]-2,4,6-trimethylbenzenesulfonamide], the Ki on human CB2R and at human recombinant CB1R was > 10 µM throughout. Moreover, the inhibition at 10 µM at human CB2R (setting [1]) was 47.8%; on human recombinant CB1R (max conc. tested 10 µM), 0%.
